This is an account of results in US20250333405A1, “ANTAGONISTS OF GPR39 PROTEIN” (VASOCARDEA, INC., priority 2024, published 2025).

For the first assay, the target named is T1, human GPR39 receptor (Homo sapiens, UniProt O43194).
T1 construct: PC3 Cells, Expressing the Endogenous Human GPR39 Receptor; endogenous in cells; host or cells: PC3 (human prostate adenocarcinoma) cells
T1 sequence (O43194 1-453): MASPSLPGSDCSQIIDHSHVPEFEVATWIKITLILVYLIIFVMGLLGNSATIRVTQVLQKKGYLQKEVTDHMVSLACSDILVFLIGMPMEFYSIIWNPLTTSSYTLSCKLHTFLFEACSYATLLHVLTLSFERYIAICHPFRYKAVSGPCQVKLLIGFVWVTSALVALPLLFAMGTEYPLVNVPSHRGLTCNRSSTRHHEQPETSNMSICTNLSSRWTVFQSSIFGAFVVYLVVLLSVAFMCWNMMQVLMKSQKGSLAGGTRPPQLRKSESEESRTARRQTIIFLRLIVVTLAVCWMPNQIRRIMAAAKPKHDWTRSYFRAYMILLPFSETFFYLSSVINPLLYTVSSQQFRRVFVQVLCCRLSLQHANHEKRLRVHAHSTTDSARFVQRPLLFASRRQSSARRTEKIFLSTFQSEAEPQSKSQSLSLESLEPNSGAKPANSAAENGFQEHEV
Description: Intracellular calcium response (FLIPR, Calcium-6) in PC3 cells, antagonism of agonist C3 (TC-G 1008) at EC90. It counts as cell-based. As to conditions: functional pKi (-Log10Ki) by modified Cheng-Prusoff from IC50; PC3 cells endogenously expressing human GPR39; 30 μM ZnCl2; agonist C3 (TC-G 1008) at EC90 1.5 μM. The procedure:
Measurement of Intracellular Calcium Response in PC3 Cells, Expressing the Endogenous Human GPR39 Receptor
Human prostate adenocarcinoma (PC3) cells endogenously expressing human GPR39 receptor were seeded into black walls clear-base 384-well plates at a density of 7,500 cells per well in DMEM (Low Glucose) supplemented with 10% heat-inactivated foetal bovine serum and 1% of Pen/Strep and grown overnight at 37° C., 5% CO2. After washing with assay buffer (20 mM HEPES, 137 mM NaCl, 5.4 mM KCl, 10 mM glucose, 0.8 mM MgSO4, 1.3 mM CaCl2), 0.3 mM Na2HPO4, 0.4 mM KH2PO4 4.2 mM NaHCO3, pH 7.4), cells were incubated with Calcium-6 probe (Molecular Devices) at 37° C. for 2 h and then equilibrated at RT for 30 minutes on metal block. The fluorescence was measured in real time by Fluorometric Imaging Plate Reader (FLIPR TETRA, Molecular Devices) (excitation wavelength at 470-495 nm, emission wavelength at 515-575 nm). Compounds of invention were serially diluted in neat DMSO at 1000 fold concentrations and plated into 384-well plates and then 200-fold diluted in assay buffer containing 150 μM ZnCl2 (30 μM final concentration) and 1.1% DMSO (0.32% final concentration). A dual addition FLIPR protocol was used which included a first addition of compounds 200-fold diluted in Assay Buffer containing 150 μM ZnCl2 and 1.1% DMSO and then after 10 minutes a second addition of a submaximal concentration of the hGPR39 receptor agonist, C3 (Tocris, TC-G 1008) at EC90 (concentration producing 90% of the maximal response) value of 1.5 μM. Fluorescence was monitored throughout the run assay. The peak of Ca2+ stimulation (baseline subtracted) was expressed as percentage of the maximal inhibition of the EC90 C3 response and was plotted versus the concentration of test compound. Curve fitting and IC50 estimations are carried out using a four-parameter logistic model using XLfit Software. […] An fpKi less than 5.2 is reported as “+/−”. An fpKi ranging from 5.2 to 5.9 is reported as “+”. An fpKi from 6.0 to 6.5 is reported as “++”. An fpKi from 6.6 to 7.2 is reported as “+++”. An fpKi equal to or greater than 7.3 is reported as “++++”.
A general note: Calcium flux is commonly read through the fluorescence of an indicator in the cells.
Turning to `O=C(Nc1ccc(-c2nnc(N3CCC(F)(F)CC3)o2)c(N2CCCC2)c1)C1CC1` [Example 100, N-[4-[5-(4,4-difluoropiperidin-1-yl)-1,3,4-oxadiazol-2-yl]-3-pyrrolidin-1-ylphenyl]cyclopropanecarboxamide], the fpKi activity result is given as “+ +”.

Staying with this assay, now noted: functional pKi (-Log10Ki) by modified Cheng-Prusoff from IC50; PC3 cells endogenously expressing human GPR39; 30 μM ZnCl2; agonist C3 (TC-G 1008) at EC90 1.5 μM; read-out: fpKi activity.
As for `O=C(Nc1ccc(C(=O)N2CCS(=O)(=O)CC2)c(-c2cccc(C(F)(F)F)n2)c1)C1CC1` [Example 37, N-[4-(1,1-dioxo-1,4-thiazinane-4-carbonyl)-3-[6-(trifluoromethyl)pyridin-2-yl]phenyl]cyclopropanecarboxamide], the Ki was at most 50.1 nM.

For `CN1CCN(C(=O)c2ccc(NC(=O)C3CC3)cc2N2CCCC2)C(c2cccc(C#N)c2)C1` (racemic) [Example 107, N-[4-[2-(3-cyanophenyl)-4-methylpiperazine-1-carbonyl]-3-pyrrolidin-1-ylphenyl]cyclopropanecarboxamide], the Ki lay in the range of 63.1 to 251 nM.

In the case of `O=C(Nc1ccc(C(=O)N2CCS(=O)(=O)CC2)c(N2CCCC2)c1Cl)C1CC1` [Example 98, N-[2-chloro-4-(1,1-dioxo-1,4-thiazinane-4-carbonyl)-3-pyrrolidin-1-ylphenyl]cyclopropanecarboxamide], the Ki fell in the range of 316 to 1000 nM.

As to `Cc1ncc(-c2cc(NC(=O)C3CC3)ccc2C(=O)N2CCN(C)CC2c2ccccc2)s1` (racemic) [Example 32, N-[4-(4-methyl-2-phenylpiperazine-1-carbonyl)-3-(2-methyl-1,3-thiazol-5-yl)phenyl]cyclopropanecarboxamide], the Ki lay within 1260 to 6310 nM.

Take `O=C(Nc1ccc(C(=O)N2CC3CC(C3)C2)c(N2CCCC2)c1)C1CC1` [Example 9, N-[4-(3-azabicyclo[3.1.1]heptane-3-carbonyl)-3-pyrrolidin-1-ylphenyl]cyclopropanecarboxamide]: the Ki is 316 to 1000 nM.

Regarding `CN1CCN(C(=O)c2cc(Cl)c(NC(=O)C3CC3)cc2N2CCCC2)C(c2ccccc2)C1` (stereo not drawn) [Example 95, N-[2-chloro-4-(4-methyl-2-phenylpiperazine-1-carbonyl)-5-pyrrolidin-1-ylphenyl]cyclopropanecarboxamide], the Ki was above 6310 nM.

For the compound `Cc1nnc(-c2ccc(C(=O)N3CCC(C(F)(F)F)CC3)c(-c3ccn(CC(C)C)n3)c2)[nH]1` [Example 45, [2-[1-(2-methylpropyl)pyrazol-3-yl]-4-(5-methyl-4H-1,2,4-triazol-3-yl)phenyl]-[4-(trifluoromethyl)piperidin-1-yl]methanone], the Ki is at most 50.1 nM.

As to `Cc1nnc(-c2ccc(C(=O)N3CCC(F)(F)CC3)c(-c3ccn(C4CCC4)n3)c2)[nH]1` [Example 55, [2-(1-cyclobutylpyrazol-3-yl)-4-(5-methyl-4H-1,2,4-triazol-3-yl)phenyl]-(4,4-difluoropiperidin-1-yl)methanone], the Ki was at most 50.1 nM.

On to `COC1(C)CCN(C(=O)c2ccc(-c3nnc(C)[nH]3)cc2-c2ccn(C(C)(C)C)n2)CC1` [Example 66, [2-(1-tert-butylpyrazol-3-yl)-4-(5-methyl-4H-1,2,4-triazol-3-yl)phenyl]-(4-methoxy-4-methyl-1-piperidyl)methanone], for which the Ki was at most 50.1 nM.

For `Cc1nnc(-c2ccc(C(=O)N3CCC(C)CC3)c(-c3nc(C(F)(F)F)cs3)c2)[nH]1` [Example 62, (4-methyl-1-piperidyl)-[4-(5-methyl-4H-1,2,4-triazol-3-yl)-2-[4-(trifluoromethyl)thiazol-2-yl]phenyl]methanone], the Ki is at most 50.1 nM.

For `Cc1cccc(C2CN(C)CCN2C(=O)c2ccc(NC(=O)C3CC3)cc2N2CCCC2)c1` (racemic) [Example 111, N-[4-[4-methyl-2-(3-methylphenyl)piperazine-1-carbonyl]-3-pyrrolidin-1-ylphenyl]cyclopropanecarboxamide], the Ki lay in the range of 63.1 to 251 nM.

`O=C(Nc1ccc(C(=O)N2CCCC2c2ccccc2)c(N2CCCC2)c1)C1CC1` (stereo not drawn) [Example 1, N-[4-(2-phenylpyrrolidine-1-carbonyl)-3-pyrrolidin-1-ylphenyl]cyclopropanecarboxamide]: the Ki is 1260 to 6310 nM.

Take `CN1CCN(C(=O)c2ccc(NC(=O)C3CC3)cc2-c2cnc(C(F)(F)F)s2)C(c2ccccc2)C1` (racemic) [Example 31, N-[4-(4-methyl-2-phenylpiperazine-1-carbonyl)-3-[2-(trifluoromethyl)-1,3-thiazol-5-yl]phenyl]cyclopropanecarboxamide]: the Ki was above 6310 nM.

As for `CCn1ccc(-c2cc(-c3nnc(C)[nH]3)ccc2C(=O)N2CCC(F)(F)CC2)n1` [Example 59, (4,4-difluoro-1-piperidyl)-[2-(1-ethylpyrazol-3-yl)-4-(5-methyl-4H-1,2,4-triazol-3-yl)phenyl]methanone], the Ki was at most 50.1 nM.

For `O=C(Nc1ccc(C(=O)N2CCS(=O)(=O)CC2)c(-c2ccc(C(F)(F)F)s2)c1)C1CC1` [Example 29, N-[4-(1,1-dioxo-1,4-thiazinane-4-carbonyl)-3-[5-(trifluoromethyl)thiophen-2-yl]phenyl]cyclopropanecarboxamide], the Ki is 316 to 1000 nM.

With `Cc1ccc(C2CN(C)CCN2C(=O)c2ccc(NC(=O)C3CC3)cc2N2CCCC2)cc1` (racemic) [Example 109, N-[4-[4-methyl-2-(4-methylphenyl)piperazine-1-carbonyl]-3-pyrrolidin-1-ylphenyl]cyclopropanecarboxamide], the Ki lay in the range of 63.1 to 251 nM.

`O=C(Nc1ccc(-c2nnc(N3CCCC3)o2)c(N2CCCC2)c1)C1CC1` [Example 99, N-[3-pyrrolidin-1-yl-4-(5-pyrrolidin-1-yl-1,3,4-oxadiazol-2-yl)phenyl]cyclopropanecarboxamide]: the Ki was above 6310 nM.

Turning to `Cc1nnc(-c2ccc(C(=O)N3CCC4(CC3)CC4)c(-c3ccn(C(C)C)n3)c2)[nH]1` [Example 50, 6-azaspiro[2.5]octan-6-yl-[4-(5-methyl-4H-1,2,4-triazol-3-yl)-2-(1-propan-2-ylpyrazol-3-yl)phenyl]methanone], the Ki is at most 50.1 nM.

As for `Cc1cc(-c2ccc(C(=O)N3CCC(F)(F)CC3)c(-c3ccn(C(C)C)n3)c2)[nH]n1` [Example 86, (4,4-difluoro-1-piperidyl)-[2-(1-isopropylpyrazol-3-yl)-4-(5-methyl-1H-pyrazol-3-yl)phenyl]methanone], the Ki was at most 50.1 nM.

Consider `CC(C)n1ccc(-c2cc(NC(=O)C3CC3)ccc2C(=O)N2CCN(C)CC2c2ccccc2)n1` (racemic) [Example 30, N-[4-(4-methyl-2-phenylpiperazine-1-carbonyl)-3-(1-propan-2-ylpyrazol-3-yl)phenyl]cyclopropanecarboxamide], for which the Ki fell in the range of 316 to 1000 nM.

`Cc1nnc(-c2ccc(C(=O)N3CCC(C(F)(F)F)CC3)c(-c3cccc(C(C)C)n3)c2)[nH]1` [Example 70, [2-(6-isopropyl-2-pyridyl)-4-(5-methyl-4H-1,2,4-triazol-3-yl)phenyl]-[4-(trifluoromethyl)-1-piperidyl]methanone]: the Ki is at most 50.1 nM.

On to `Cc1nnc(-c2ccc(C(=O)N3CCC(OC(F)(F)F)CC3)c(-c3ccn(C(C)(C)C)n3)c2)[nH]1` [Example 80, [2-(1-tert-butylpyrazol-3-yl)-4-(5-methyl-4H-1,2,4-triazol-3-yl)phenyl]-[4-(trifluoromethoxy)-1-piperidyl]methanone], for which the Ki is at most 50.1 nM.

Regarding `CN1CCN(C(=O)c2ccc(NC(=O)C3CC3)cc2C2CCCC2)C(c2ccccc2)C1` (stereo not drawn) [Example 91, N-[3-cyclopentyl-4-(4-methyl-2-phenylpiperazine-1-carbonyl)phenyl]cyclopropanecarboxamide], the Ki lay in the range of 316 to 1000 nM.
